Test results as given in US20050049210A1, “Methods for the controlled delivery of pharmacologically active compounds” (IDEXX Laboratories, Inc., priority 2003, published 2005).

Experiments:
[1] = Solubility of fatty acid salt in water immiscible solvent; type: physicochemical; settings: amine group neutralized with linoleic acid, in isopropyl myristate
Text: Oxytetracycline has one tertiary amine group, and the hydrochloride salt of oxytetracycline is readily soluble in water. Adding one mole of fatty acid to one mole of oxytetracycline creates a salt that is more soluble than unmodified oxytetracycline in isopropyl myristate.
When the two amine groups of tilmicosin are neutralized with any of several fatty acids (such as, for example, decanoic C10, lauric C12, myristic C14, palmitic C16, stearic C18, oleic C18, elaidic C18, linoleic C18, and erucic C22, sebacic, dodecanedioic), the resulting salt is soluble in pharmaceutically-acceptable water immiscible solvents. When a formulation of the salt (tilmicosin-linoleic acid) is sealed in a dialysis cassette and place in saline, the tilmicosin salt remains a cohesive mass, and tilmicosin is slowly released from the bag. The rate of release is a function of the chain length of the fatty acid, the solvent, and the tilmicosin-fatty acid salt concentration.
Roxithromycin is effective against a broad range of bacteria, and is used for the treatment of respiratory diseases in cattle. The amine group of roxithromycin can be neutralized with linoleic acid in isopropyl myristate, and a clear solution is obtained at 200 mg/ml.
Terbinafine is a specific inhibitor of squaline epoxidase, a key enzyme in fungal ergosterol biosynthesis. […]

[2] = Solubility of salt in water; type: physicochemical; settings: linoleic acid salt
Procedure: Terbinafine is a specific inhibitor of squaline epoxidase, a key enzyme in fungal ergosterol biosynthesis. The amine group of terbinafine was neutralized with linoleic acid in ispropyl myristate, resulting in a clear solution at 150 mg/ml.

[3] = system: dogs; settings: tilmicosin in conventional form; cited from earlier work

Row | Compound | concentration at which a clear solution is obtained [1] | solubility of the resulting salt in water [2] | dose normally lethal in dogs [3]
1 | CN(C/C=C/C#CC(C)(C)C)Cc1cccc2ccccc12 [terbinafine, Terbinafine] | 150000 µg/mL | highly insoluble | –
2 | CC[C@H]1OC(=O)[C@H](C)[C@@H](OC2CC(C)(OC)C(O)C(C)O2)[C@H](C)[C@@H](OC2OC(C)CC(N(C)C)C2O)[C@](C)(O)C[C@@H](C)/C(=N\OCOCCOC)[C@H](C)[C@@H](O)[C@]1(C)O (stereo partly shown) [roxithromycin, Roxithromycin] | 200000 µg/mL | – | –
3 | Tilmicosin | – | – | 50 mg/kg
